In US20090176846A1, “N-hydroxy-4- {5- [4- (5-isopropyl-2-methyl-1, 3-thiazol-4-yl) phenoxy] pentoxy} benzamidine 2 methanesulfonic acid salt” (priority 2005, published 2009):
Converted amounts (≈) assume the structure as drawn. Counter-ions that a name gives are not always drawn. Like-named read-outs stand apart in the source and are kept apart here.

Experiments:
[1] = Solubility in various solvents at room temperature; format: physicochemical
Text: The 2 methanesulfonic acid salt, prepared in Example 1, and the 1 methanesulfonic acid salt, prepared in Comparative Example 1, of N-Hydroxy-4-{5-[4-(5-isopropyl-2-methyl-1,3-thiazol-4-yl)phenoxy]pentoxy} benzamidine, and the N-Hydroxy-4-{5-[4-(5-isopropyl-2-methyl-1,3-thiazol-4-yl)phenoxy]pentoxy} benzamidine, prepared in Reference Preparation Example 1, were examined for solubility (μg/mL) in various solvents at room temperature.

[2] = Pharmacokinetic evaluation in SD rats; format: in vivo; conditions: 50 mg/kg; for Cmax (maximum blood concentration): n=4
Method: The 2 methanesulfonic acid salt, prepared in Example 1, and the 1 methanesulfonic acid salt, prepared in Comparative Example 1, of N-Hydroxy-4-{5-[4-(5-isopropyl-2-methyl-1,3-thiazol-4-yl)phenoxy]pentoxy} benzamidine, and the N-Hydroxy-4-{5-[4-(5-isopropyl-2-methyl-1,3-thiazol-4-yl)phenoxy]pentoxy} benzamidine, prepared in Reference Preparation Example 1, were individually administered to SD rats in a dosage of 50 mg/kg. At given time points (0, 0.5, 1, 1.5, 2, 3, 5 and 8 hrs), rats were mildly anesthetized with diethyl ether, and blood samples were collected from the orbital venous plexus and stored at −20° C. until concentration analysis. The plasma samples were mixed with an equal volume of an internal standard substance solution (prepared by dissolving betamethasone in acetonitrile to give a final concentration of 30 μg/ml) with agitation for. 1 min, and was centrifuged at 12,000 rpm for 10 min. Active components of the plasma samples were analyzed by HPLC (Model: Waters Module 1). From the obtained data, pharmacokinetic parameters (maximum blood concentration (Cmax) and area under the blood concentration-time curve (AUC) were calculated by noncompartment analysis using the WinNonlin program (Version 1.0, Scientific Consulting Inc., USA). The results are given in Table 5, below.

[3] = Stability under accelerated conditions (40±2° C./75±5% RH), HPLC content; format: physicochemical; conditions: for Content (%): 40±2° C./75±5% RH, cap-opened vial, HPLC area percentage
Method: The 2 methanesulfonic acid salt of N-Hydroxy-4-{5-[4-(5-isopropyl-2-methyl-1,3-thiazol-4-yl)phenoxy]pentoxy} benzamidine, prepared in Example 1, was placed into a transparent glass vial, and stored at a cap-opened state under accelerated conditions (40±2° C./75±5% RH) for a period of two weeks. Thereafter, the sample was analyzed by HPLC (Waters Module 1). The analysis was performed using a column packed with an octadecyl-silylated silica gel (Shiseido CAPCELL PAK C18, UG 120, Particle size 5 μm) under conditions: UV detection: 256 nm, injection volume: 10 μl, mobile-phase flow rate: 1.5 mL/min. The amount of the compound was calculated as an area percentage.

bone fractures = conditions: rats, compared to control not treated; cited from earlier work
[4] = test system: allergic inflammatory diseases (asthma); conditions: asthmatic mice, cited from earlier work
[5] = distilled water, room temperature
[6] = dose-dependent, compared to control group

CS(=O)(=O)O.Cc1nc(-c2ccc(OCCCCCOc3ccc(C(=N)NO)cc3)cc2)c(C(C)C)s1 [1 methanesulfonic acid salt, N-Hydroxy-4-{5-[4-(5-isopropyl-2-methyl-1,3-thiazol-4-yl)phenoxy]pentoxy} benzamidine 1 methanesulfonic acid salt]
solubility [1, 5]: 414.34 µg/mL
solubility ([1]; pH 1.2, room temperature): 1,092.98 μg/mL
solubility ([1]; pH 4.0, room temperature): 0.99 µg/mL
Cmax (maximum blood concentration) [2]: 1400 ± 110 ng/mL
AUC (area under the blood concentration-time curve) ([2]; n=4, 0-8 hrs): 7010 ± 600 ng·h/mL

Cc1nc(-c2ccc(OCCCCCOc3ccc(C(=N)NO)cc3)cc2)c(C(C)C)s1 [2 methanesulfonic acid salt, N-Hydroxy-4-{5-[4-(5-isopropyl-2-methyl-1,3-thiazol-4-yl)phenoxy]pentoxy} benzamidine 2 methansulfonic acid salt]
solubility [1, 5]: 3,535.33 μg/mL
solubility ([1]; pH 1.2, room temperature): 1,686.71 μg/mL
solubility fold higher than the 1 methanesulfonic acid salt ([1]; pH 4.0): about 3 fold
solubility ([1]; solvent of pH 4.0 (composition not named), pH 4, aqueous buffer, pH 4.0, room temperature, read-out: solubility): 3 µg/mL
change in content in accelerated test ([3]; accelerated test at 40° C., two weeks): no change
Content (%) ([3]; after 1 week): 99.87%
Content (%) ([3]; after 2 weeks): 99.86%
Content (%) ([3]; after 2 days): 99.86%
Content (%) ([3]; early stage): 99.85%
Cmax (maximum blood concentration) [2]: 1670 ± 320 ng/mL
AUC (area under the blood concentration-time curve) ([2]; n=4, 0-8 hrs): 10300 ± 800 ng·h/mL
bioavailability ([2]; SD, rat, plasma, read-out: bioavailability relative to the 1 methanesulfonic acid salt): > 46%

Cc1nc(-c2ccc(OCCCCCOc3ccc(C(=N)NO)cc3)cc2)c(C(C)C)s1 [Free base, N-Hydroxy-4-{5-[4-(5-isopropyl-2-methyl-1,3-thiazol-4-yl)phenoxy]pentoxy} benzamidine]
bone mineral content of callus (bone fractures): significantly enhanced
bone tissue density (bone fractures): significantly increased
callus volume (bone fractures): significantly reduced
content of connective and soft tissues in the callus tissue (bone fractures): significantly reduced
mechanical strength of callus (bone fractures): significantly enhanced
solubility [1, 5]: 3.48 µg/mL (≈ 7.67 µM)
solubility ([1]; solvent of pH 1.2 (composition not named), pH 1.2, simulated gastric fluid, pH 1.2, room temperature, read-out: solubility): 951 µg/mL (≈ 2100 µM)
AUC ([2]; SD, rat, plasma, n=4, 0-8 hrs, read-out: AUC (area under the blood concentration-time curve)): 5310 ± 490 ng·h/mL
Cmax ([2]; SD, rat, plasma, n=4, read-out: Cmax (maximum blood concentration)): 1090 ± 170 ng/mL
alveolar area ([4]; compared to control group): significantly increased
number of eosinophils [4, 6]: significantly decreased
number of eosinophils in bronchoalveolar lavage fluid [4, 6]: significantly decreased
total number of leukocytes [4, 6]: significantly decreased
increase in lung weight ([4]; oral administration for 18 days, compared to control given sterile distilled water): suppressed
